The values that follow are results of earlier work, collected in US20260217701A1, “SELECTIVE BET INHIBITORS AND USES THEREOF” (Tay Therapeutics Limited, priority 2022, published 2026).

The structures appear in SMILES notation.

The data set concerns BET BD2. The note with it: public sources, not a head-to-head trial, cited from earlier work; for BD2: comparator BET inhibitors.

Consider `CCNC(=O)c1cc2c(-c3cc(C(C)(C)O)ccc3Oc3c(C)cc(F)cc3C)cn(C)c(=O)c2[nH]1` [ABBV-744], for which the BD2 is recorded as 28 nM. Also, the “Selectivity (BD1/BD2)” value (FRET, comparator) is recorded as 753x (FRET).

As to `CNC(=O)c1cc(C(=O)NC2CC2)cn(Cc2ccccc2)c1=O` [GSK620], the BD2 is 79 nM.
